The text below walks through data of PMC11840788, “3,3′-Diindolylmethane (DIM): A Molecular Scaffold for Inhibition of WWP1 and WWP2, Members of the NEDD4 Family HECT E3 Ligases” (ACS Omega, 2025).

One assay has as its target T1, WWP2 (Homo sapiens, UniProt O00308).
T1 construct: made in house; host or cells: E. coli
Nature of the assay: STD NMR binding, WWP2. As to conditions: 500 μM ligand, 20 μM protein. The protocol:
Given the similarities between WWP1 and WWP2 HECT domains, we speculated that the relatively low sensitivity of DSF may not be able to detect weak WWP2-I3C interactions and therefore opted to investigate further using STD NMR. STD NMR is a versatile ligand-based NMR approach, relying on selective saturation of the protein. This saturation is transferred to the ligand when and if the ligand binds, causing a reduction of the signal intensities. The STD intensities are calculated as the difference of the reference spectra (where selective saturation is off) minus the irradiated spectra, and they are proportional to the vicinity of the protein surface. […]
An Amicon centrifuge filter unit with a 10 kDa MW cutoff was used to exchange the protein in 25 mM d19-2,2-bis(hydroxymethyl)-2,2′,2″-nitrilotriethanol, 100 mM NaCl and 1.0 mM DTT buffer pH* 8.9 (uncorrected for the deuterium isotope effect on the pH glass electrode) in D2O. […] All the NMR experiments were performed on a Bruker Avance 800.23 MHz at 278 K. Binding epitope mappings were obtained by determining the initial slopes (STD0) calculated by performing a least-squares fitting of the following monoexponential curve: [drawing 1] where STD(tsat) is the STD intensity for a saturation time, tsat, STDmax is the maximum STD intensity and ksat is the rate constant for saturation transfer. […]

Another assay deals with WWP1 HECT domain. Details: method as in doi:10.1016/j.phytol.2023.01.002. As to conditions: thermal shift analysis; cited from earlier work.

T1 sequence (O00308 whole entry): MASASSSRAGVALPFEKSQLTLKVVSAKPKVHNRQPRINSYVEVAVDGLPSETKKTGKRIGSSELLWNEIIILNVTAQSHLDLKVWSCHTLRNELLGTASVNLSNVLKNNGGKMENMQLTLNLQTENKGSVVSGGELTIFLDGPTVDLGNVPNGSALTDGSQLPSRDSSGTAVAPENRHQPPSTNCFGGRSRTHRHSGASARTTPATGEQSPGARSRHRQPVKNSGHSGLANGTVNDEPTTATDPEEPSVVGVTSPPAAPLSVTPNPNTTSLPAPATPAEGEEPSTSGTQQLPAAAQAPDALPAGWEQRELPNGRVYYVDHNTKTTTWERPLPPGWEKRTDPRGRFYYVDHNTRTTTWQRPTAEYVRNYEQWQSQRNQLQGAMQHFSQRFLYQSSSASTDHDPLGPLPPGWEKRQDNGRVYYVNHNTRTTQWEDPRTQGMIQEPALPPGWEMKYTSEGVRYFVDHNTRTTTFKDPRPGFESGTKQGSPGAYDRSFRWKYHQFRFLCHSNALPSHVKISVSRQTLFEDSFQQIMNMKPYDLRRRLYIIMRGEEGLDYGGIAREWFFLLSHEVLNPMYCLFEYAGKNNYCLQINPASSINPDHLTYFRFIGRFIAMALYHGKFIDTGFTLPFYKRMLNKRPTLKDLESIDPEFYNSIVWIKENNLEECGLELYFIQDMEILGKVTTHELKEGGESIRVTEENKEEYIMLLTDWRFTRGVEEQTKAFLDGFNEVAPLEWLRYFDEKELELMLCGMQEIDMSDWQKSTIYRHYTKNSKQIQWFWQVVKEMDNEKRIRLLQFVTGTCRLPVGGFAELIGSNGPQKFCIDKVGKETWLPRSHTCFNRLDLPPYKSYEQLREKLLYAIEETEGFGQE

`OCc1c[nH]c2ccccc12` [Compound I3C, Indole-3-carbinol, reference compound]: the “STD intensities, WWP2-I3C complex (in words, compared with WWP1)” value on WWP2 is “much lower”. The “shift in Tm” value in the assay on WWP1 HECT domain is 3.8 °C.
